Assay results as given in patent publication US8604038B2, “Pyrrolidine derived beta 3 adrenergic receptor agonists” (Merck Sharp & Dohme Corp., priority 2009, dated 2013).

target: T1, human β3 adrenergic receptor (Homo sapiens, UniProt P13945); assay: Beta-3 agonist in vitro functional assay (cAMP production, LANCE, transfected CHO cells); type: cell-based; details: Table 1, CHO cells with cloned β3 receptor, ligands titrated 10^-10 M to 10^-5 M, read-out: Human β3 agonist functional activity
T1 construct: expressed in transfected cells; host or cells: CHO (Chinese hamster ovary) cells, stably transfected
Experimental: Functional Assay: For compounds in examples 1-50, cAMP production in response to ligand is measured according to Barton, et al. (1991, Agonist-induced desensitization of D2 dopamine receptors in human Y-79 retinoblastoma cells. Mol. Pharmacol. […]:650-658) modified as follows. The cAMP production is measured using a homogenous time-resolved fluorescence resonance energy transfer immunoassay (LANCE™, Perkin Elmer) according to the manufacture's instructions. Chinese hamster ovary (CHO) cells, stably transfected with the cloned β-adrenergic receptor (β1, β2 or β3) are harvested after 3 days of subculturing. Harvesting of cells is done with Enzyme-free Dissociation Media (Specialty Media). Cells are then counted and resuspended in assay buffer (Hank's Balanced salt solution supplemented with 5 mM HEPES, […]) containing a phosphodiesterase inhibitor (IBMX, 0.6 mM). The reaction is initiated by mixing 6,000 cells in 6 μL with 6 μL Alexa Fluor labeled cAMP antibody (LANCE™ kit) which is then added to an assay well containing 12 μL of compound (diluted in assay buffer to 2× final concentration). The reaction proceeds for 30 minutes at RT and is terminated by the addition of 24 ul detection buffer (LANCE™ kit). The assay plate is then incubated for 1 h at RT and time-resolved fluorescence measured on a Perkin Elmer Envision reader or equivalent. The unknown cAMP level is determined by comparing fluorescence levels to a cAMP standard curve.
The non-selective, full agonist β-adrenergic ligand isoproterenol is used at all three receptors to determine maximal stimulation. The human β3 adrenergic receptor (AR) selective ligand (S)-N-[4-[2-[[2-hydroxy-3-(4-hydroxyphenoxy)propyl]amino]ethyl]-phenyl]-4-iodobenzenesulfonamide is used as a control in all assays. […] The EC50 is defined as the concentration of compound that gives 50% activation of its own maximum. Data are analyzed using Microsoft Excel and Graphpad Prism or an internally developed data analysis software package.
The EC50 is defined as the concentration of compound that gives 50% activation of its own maximum. Functional antagonist assays are performed similar to described above; however, unknown ligands are titrated at β-adrenergic receptor subtypes 1 and 2 at a final concentration in the assay of 10^-12 M to 10^-5 M in the presence of 10^-9 M full agonist β-adrenergic ligand isoproterenol. The EC50 is defined as the concentration of compound that gives 50% inhibition of the full agonist response. Data are analyzed using Microsoft Excel and Graphpad Prism or an internally developed data analysis software package.

T1 sequence (P13945 whole entry): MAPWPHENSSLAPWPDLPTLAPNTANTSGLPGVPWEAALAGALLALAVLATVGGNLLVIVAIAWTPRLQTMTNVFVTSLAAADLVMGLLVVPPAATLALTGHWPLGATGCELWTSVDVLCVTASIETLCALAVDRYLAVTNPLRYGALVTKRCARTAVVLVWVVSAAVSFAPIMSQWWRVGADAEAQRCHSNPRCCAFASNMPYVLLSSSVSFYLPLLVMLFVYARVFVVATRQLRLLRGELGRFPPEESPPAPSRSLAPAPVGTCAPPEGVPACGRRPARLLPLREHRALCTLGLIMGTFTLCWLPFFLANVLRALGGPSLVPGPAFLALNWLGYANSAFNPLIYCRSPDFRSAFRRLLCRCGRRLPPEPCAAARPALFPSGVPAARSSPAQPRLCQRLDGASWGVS

Compound | EC50
O=C(NCc1nccc(C(F)(F)F)n1)c1ccc(C[C@@H]2CC[C@H]([C@H](O)c3ccccc3)N2)cc1 [Example 14] | 10 to 99.9 nM
O=C(NCc1nc2ccccc2s1)c1ccc(C[C@@H]2CC[C@H]([C@H](O)c3cccnc3)N2)cc1 [Example 41] | 10 to 99.9 nM
O=C(NCc1ncccc1F)c1ccc(C[C@@H]2CC[C@H]([C@H](O)c3ccccc3)N2)cc1 [Example 4] | 10 to 99.9 nM
O=C(NC1CCCc2cccnc21)c1ccc(C[C@@H]2CC[C@H]([C@H](O)c3ccccc3)N2)cc1 (stereo partly drawn) [Example 48] | 100 to 999 nM
CC(NC(=O)c1ccc(C[C@@H]2CC[C@H]([C@H](O)c3ccccc3)N2)cc1)c1cnccn1 (stereo partly drawn) [Example 11] | 999 to 3000 nM
O=C(NCc1cccc(Cl)n1)c1ccc(C[C@@H]2CC[C@H]([C@H](O)c3ccccc3)N2)cc1 [Example 6] | 10 to 99.9 nM
CN1CCC(NC(=O)c2ccc(C[C@@H]3CC[C@H]([C@H](O)c4cccnc4)N3)cc2)C1=O (stereo partly drawn) [Example 49] | 100 to 999 nM
O=C(NCc1cnccn1)c1ccc(C[C@@H]2CC[C@H]([C@H](O)c3ccccc3)N2)cc1 [Example 10] | 100 to 999 nM
O=C(NCc1cc(-c2ccccc2)n[nH]1)c1ccc(C[C@@H]2CC[C@H]([C@H](O)c3ccccc3)N2)cc1 [Example 32] | 10 to 99.9 nM
Cc1cc(-c2ccccc2)nc(CNC(=O)c2ccc(C[C@@H]3CC[C@H]([C@H](O)c4ccccc4)N3)cc2)n1 [Example 22] | 10 to 99.9 nM
O=C(NCc1nc2ccccc2s1)c1ccc(C[C@@H]2CC[C@H]([C@H](O)c3ccccc3)N2)cc1 [Example 40] | 10 to 99.9 nM
O=C(NCc1nccc2ccccc12)c1ccc(C[C@@H]2CC[C@H]([C@H](O)c3ccccc3)N2)cc1 [Example 42] | 1 to 9.9 nM
O=C(NCc1ccccc1-c1c[nH]cn1)c1ccc(C[C@@H]2CC[C@H]([C@H](O)c3ccccc3)N2)cc1 [Example 46] | 100 to 999 nM
O=C(NCc1ccncn1)c1ccc(C[C@@H]2CC[C@H]([C@H](O)c3ccccc3)N2)cc1 [Example 12] | 10 to 99.9 nM
O=C(NCc1cc2ccccc2cn1)c1ccc(C[C@@H]2CC[C@H]([C@H](O)c3ccccc3)N2)cc1 [Example 45] | 10 to 99.9 nM
O=C(NCc1nc2cccnc2[nH]1)c1ccc(C[C@@H]2CC[C@H]([C@H](O)c3ccccc3)N2)cc1 [Example 37] | 10 to 99.9 nM
Cc1cc(C2CC2)nc(CNC(=O)c2ccc(C[C@@H]3CC[C@H]([C@H](O)c4ccccc4)N3)cc2)n1 [Example 16] | 10 to 99.9 nM
Cc1nccnc1CNC(=O)c1ccc(C[C@@H]2CC[C@H]([C@H](O)c3ccccc3)N2)cc1 [Example 20] | 10 to 99.9 nM
O=C(NCc1ccccn1)c1ccc(C[C@@H]2CC[C@H]([C@H](O)c3ccccc3)N2)cc1 [Example 2] | 10 to 99.9 nM
O=C(NC1CCc2scnc21)c1ccc(C[C@@H]2CC[C@H]([C@H](O)c3ccccc3)N2)cc1 (stereo partly drawn) [Example 47] | 100 to 999 nM
Cc1cccc(CNC(=O)c2ccc(C[C@@H]3CC[C@H]([C@H](O)c4ccccc4)N3)cc2)n1 [Example 17] | 100 to 999 nM
O=C(NCc1cc(-c2ccccc2)no1)c1ccc(C[C@@H]2CC[C@H]([C@H](O)c3cccnc3)N2)cc1 [Example 30] | 10 to 99.9 nM
Cc1nc(CNC(=O)c2ccc(C[C@@H]3CC[C@H]([C@H](O)c4ccccc4)N3)cc2)cs1 [Example 27] | 10 to 99.9 nM
O=C(NCc1nc(-c2ccccc2)n[nH]1)c1ccc(C[C@@H]2CC[C@H]([C@H](O)c3cccnc3)N2)cc1 [Example 33] | 1 to 9.9 nM

same assay, conditions: Table 3, CHO cells with cloned β3 receptor, ligands titrated 10^-12 M to 10^-5 M, read-out: Human β3 agonist functional activity

Compound | EC50
O=C(c1ccc(C[C@@H]2CC[C@H]([C@H](O)c3ccccc3)N2)cc1)N(CCO)Cc1ccccc1F [Example 87] | 1 to 9.9 nM
Cc1csc(CCN(C)C(=O)c2ccc(C[C@@H]3CC[C@H]([C@H](O)c4ccccc4)N3)cc2)n1 [Example 88] | 10 to 99.9 nM
CN(Cc1cnc2ccccc2n1)C(=O)c1ccc(C[C@@H]2CC[C@H]([C@H](O)c3ccccc3)N2)cc1 [Example 61] | 1 to 9.9 nM
CN(Cc1ccccc1)C(=O)c1ccc(C[C@@H]2CC[C@H]([C@H](O)c3ccccc3)N2)cc1 [Example 68] | 100 to 999 nM
CN(Cc1nc2ccccc2[nH]1)C(=O)c1ccc(C[C@@H]2CC[C@H]([C@H](O)c3ccccc3)N2)cc1 [Example 84] | 100 to 999 nM
CN(Cc1nn(C)c(Cl)c1Cl)C(=O)c1ccc(C[C@@H]2CC[C@H]([C@H](O)c3ccccc3)N2)cc1 [Example 75] | 1 to 9.9 nM
CN(Cc1cccc(Br)n1)C(=O)c1ccc(C[C@@H]2CC[C@H]([C@H](O)c3ccccc3)N2)cc1 [Example 77] | 10 to 99.9 nM
CN(Cc1ccccn1)C(=O)c1ccc(C[C@@H]2CC[C@H]([C@H](O)c3ccccc3)N2)cc1 [Example 54] | 100 to 999 nM
CCN(Cc1ccccn1)C(=O)c1ccc(C[C@@H]2CC[C@H]([C@H](O)c3ccccc3)N2)cc1 [Example 121] | 100 to 999 nM
Cc1nc(CN(C)C(=O)c2ccc(C[C@@H]3CC[C@H]([C@H](O)c4ccccc4)N3)cc2)cs1 [Example 66] | 10 to 99.9 nM
CN(CCc1cccnc1)C(=O)c1ccc(C[C@@H]2CC[C@H]([C@H](O)c3ccccc3)N2)cc1 [Example 53] | 10 to 99.9 nM
CC(C1COc2ccccc2O1)N(C)C(=O)c1ccc(C[C@@H]2CC[C@H]([C@H](O)c3ccccc3)N2)cc1 (single isomer, unassigned) [Example 94] | 10 to 99.9 nM
CN(CCC1CCCCO1)C(=O)c1ccc(C[C@@H]2CC[C@H]([C@H](O)c3ccccc3)N2)cc1 (stereo partly drawn) [Example 119] | 100 to 999 nM
CN(Cc1ncc(Cl)cn1)C(=O)c1ccc(C[C@@H]2CC[C@H]([C@H](O)c3ccccc3)N2)cc1 [Example 125] | 100 to 999 nM
COCc1cc(CN(C)C(=O)c2ccc(C[C@@H]3CC[C@H]([C@H](O)c4ccccc4)N3)cc2)n[nH]1 [Example 90] | < 1 nM
CN(Cc1cccc2ncccc12)C(=O)c1ccc(C[C@@H]2CC[C@H]([C@H](O)c3ccccc3)N2)cc1 [Example 109] | 100 to 999 nM
CN(Cc1ncccc1F)C(=O)c1ccc(C[C@@H]2CC[C@H]([C@H](O)c3ccccc3)N2)cc1 [Example 106] | 10 to 99.9 nM
Cc1cccnc1CN(C)C(=O)c1ccc(C[C@@H]2CC[C@H]([C@H](O)c3ccccc3)N2)cc1 [Example 62] | 10 to 99.9 nM
CCN(Cc1ccnc(C(C)C)n1)C(=O)c1ccc(C[C@@H]2CC[C@H]([C@H](O)c3ccccc3)N2)cc1 [Example 104] | 10 to 99.9 nM
CN(Cc1cnn(-c2ccccc2)n1)C(=O)c1ccc(C[C@@H]2CC[C@H]([C@H](O)c3ccccc3)N2)cc1 [Example 58] | 10 to 99.9 nM
CC(C1COc2ccccc2O1)N(C)C(=O)c1ccc(C[C@@H]2CC[C@H]([C@H](O)c3ccccc3)N2)cc1 (single isomer, unassigned) [Example 95] | 100 to 999 nM
Cc1cc(CN(C)C(=O)c2ccc(C[C@@H]3CC[C@H]([C@H](O)c4ccccc4)N3)cc2)on1 [Example 82] | 10 to 99.9 nM
CN(Cc1ccon1)C(=O)c1ccc(C[C@@H]2CC[C@H]([C@H](O)c3ccccc3)N2)cc1 [Example 86] | 10 to 99.9 nM
CN(Cc1cccc(F)c1)C(=O)c1ccc(C[C@@H]2CC[C@H]([C@H](O)c3ccccc3)N2)cc1 [Example 60] | 1 to 9.9 nM
CCN(Cc1cccnn1)C(=O)c1ccc(C[C@@H]2CC[C@H]([C@H](O)c3ccccc3)N2)cc1 [Example 129] | 100 to 999 nM
COCCN(C)C(=O)c1ccc(C[C@@H]2CC[C@H]([C@H](O)c3ccccc3)N2)cc1 [Example 64] | 10 to 99.9 nM
CN(C)C(=O)c1ccc(C[C@@H]2CC[C@H]([C@H](O)c3ccccc3)N2)cc1 [Example 69] | 10 to 99.9 nM

same assay, conditions: given as a range, CHO cells with cloned β3 receptor, read-out: human Beta-3 agonist functional activity

Compound | EC50
CN(Cc1ccccc1F)C(=O)c1ccc(C[C@@H]2CC[C@H]([C@H](O)c3ccccc3)N2)cc1 [Example 135, N-(2-fluorobenzyl)-4-({(2S,5R)-5-[(R)-hydroxy(phenyl)methyl]pyrrolidin-2-yl}methyl)-N-methylbenzamide] | 10 to 99.9 nM
CN(CCc1ccccn1)C(=O)c1ccc(C[C@@H]2CC[C@H]([C@H](O)c3ccccc3)N2)cc1 [Example 134, 4-({(2S,5R)-5-[(R)-hydroxy(phenyl)methyl]pyrrolidin-2-yl}methyl)-N-methyl-N-[2-(pyridin-2-yl)ethyl)benzamide] | 10 to 99.9 nM
CN(Cc1cccc(N)n1)C(=O)c1ccc(C[C@@H]2CC[C@H]([C@H](O)c3ccccc3)N2)cc1 [Example 136, N-[(6-aminopyridin-2-yl)methyl]-4-({(2S,5R)-5-[(R)-hydroxy(phenyl)methyl]pyrrolidin-2-yl}methyl)-N-methylbenzamide] | < 1 nM
